Measured values taken from PubChem BioAssay (NCI).
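In this assay, cells in 96-well plates receive the compound at five concentrations for 48 hours. Endpoints are linearly interpolated between the surrounding concentrations. The concentration for 50% growth inhibition is given as GI50. The concentration for full growth arrest is given as TGI.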

Columns and labels:
Assay in all cases: growth of human tumour cells (NCI), 48 h
MDA-MB-231 breast = system: MDA-MB-231 breast
EKVX NSCLC = system: EKVX NSCLC
A498 renal = system: A498 renal
KM12 colon = system: KM12 colon
SK-MEL-5 melanoma = system: SK-MEL-5 melanoma
SNB-19 CNS = system: SNB-19 CNS
UACC-257 melanoma = system: UACC-257 melanoma
SNB-75 CNS = system: SNB-75 CNS
SF-539 CNS = system: SF-539 CNS
SK-OV-3 ovarian = system: SK-OV-3 ovarian

Compound	TGI (MDA-MB-231 breast) [µM]	TGI (EKVX NSCLC) [µM]	TGI (A498 renal) [µM]	TGI (KM12 colon) [µM]	TGI (SK-MEL-5 melanoma) [µM]	TGI (SNB-19 CNS) [µM]	TGI (UACC-257 melanoma) [µM]	TGI (SNB-75 CNS) [µM]	TGI (SF-539 CNS) [µM]	TGI (SK-OV-3 ovarian) [µM]	GI50 (MDA-MB-231 breast) [µM]	GI50 (SNB-75 CNS) [µM]	GI50 (EKVX NSCLC) [µM]	GI50 (SF-539 CNS) [µM]	GI50 (SK-OV-3 ovarian) [µM]	GI50 (A498 renal) [µM]	GI50 (KM12 colon) [µM]	GI50 (SK-MEL-5 melanoma) [µM]	GI50 (UACC-257 melanoma) [µM]	GI50 (SNB-19 CNS) [µM]
Cc1ncc(COP(=O)(O)O)c(C)c1O	> 100	> 100	> 100	> 100	> 100	> 100	> 100													
N=C(N)SCCN1CCCCC1	44.6	> 100	> 100	> 100	> 100		41.6	94.1	84.1	> 100										
O=C1O/C(=C\C=C\CO)C=C1/C=C/CO	52.8	35.5		> 100	46	51.4		> 100	55	> 100										
NC(=S)N/N=C1\CC(c2ccccc2)Nc2ccccc21 (stereo unspecified)		> 100	68.2		50.9	> 100		49.1	> 100	> 100										
Cc1ccccc1C1CC(=O)CC(c2ccccc2C)C12C(=O)NC(=S)NC2=O (stereo unspecified)	90.1	> 100	72.2	53.6	32.7	> 100	52.4	70.7	48.9	> 100										
CC(=O)C(N=NC1CCC(S(=O)(=O)NB2N=CS2)CC1)C(=O)Nc1ccccc1C (stereo unspecified)		41.2	33.6	30.1	26.9	31.2	45.1	33.8	32.4	50.6										
CCCCCCCCc1ccc(CCC(N)(CO)CO)cc1	1.98	5.8	22.6	3.44	2.98		5.01	4.2	3.39	3.09	0.521	2.13	2.36	1.85	1.61	3.34	1.93	1.62	2.23	
CC1(Cc2cc3c(cc2C2(c4ccc([N+](=O)[O-])cc4)OCCO2)OCO3)OCCO1	> 100	> 100	> 100	> 100	> 100	> 100	> 100		> 100	> 100										
COc1cc(O)c2c(=O)c(OC)c(-c3ccc(OC)c(OC)c3)oc2c1.[Zn+2]	65.4	> 100			> 100	> 100		8.79	> 100	47.2	3.83		25.7					17.6		4.31
O=S(=O)([O-])[O-].[Fe+2].[OH2+]c1c(Cl)cc(Cl)cc1/C=N/Nc1ccccn1		2.25	4.5	2.75	15.1	3.64	2.63	1.64	1.27	3.7					1.86					
Cc1cccc(/C=C2/C(=O)Nc3ccccc32)n1	34.3	71.9	46.9	35.4	26.3	> 58.9	30.1	> 100	51.4	52	11.6									
C[N+]1(C)C/C(=C\c2ccc(O)cc2)C(=O)/C(=C/c2ccc(O)cc2)C1		> 100	> 100	> 100	> 100	> 100	> 100	> 100	> 100	> 100										
CCOc1ccc(N=Nc2ccc(-c3ccc(N=Nc4c(O)ccc5cc(S(=O)(=O)O)cc(S(=O)(=O)O)c45)cc3)cc2)cc1	> 100	> 100		> 100	> 100	> 100	> 100		> 100	> 100										
CC(=O)Oc1cc(/C=C/c2ccc(O)cc2)cc(OC(C)=O)c1	> 100		85.5	> 100	> 100	> 100	> 100	> 100	41.5	> 100										
COc1ccc(OC)c([N+](=O)[O-])c1-c1nc2sc(C)c(C)n2c1/C=N/N=C(N)N	> 100	> 100	> 100	50.9	> 100	> 100	> 100		> 100											
O=C(/C=C/c1ccc(O)cc1)c1cc(-c2cc(CCC(=O)c3ccc(O)cc3O)ccc2O)c(O)cc1O	> 50	> 50	> 50	> 50	> 50	> 50	> 50	41.7	24.8	42.6										
CC(=O)c1c(C)cc2cccc(OC3OC(CO)C(O)C(O)C3O)c2c1O (stereo unspecified) (tested in a mixture with another compound)	> 100	> 100	> 100	> 100	> 100	> 100	> 100	> 100	> 100	> 100										
CC(=O)[C@]12OC(=O)C3=C1[C@H](CC[C@@H]3C)[C@@H](C)C[C@H]2C=C(C)C	15.6		15.1	14.9	11.8	16.4	21		16.5	21.3										
